Molecular target: T1, recombinant Vps34 (Homo sapiens, UniProt Q8NEB9)
T1 construct: purchased Invitrogen PV5126
Test: Phosphorylation of phosphatidylinositol (PI) by Vps34 in vitro, ADP detected by TR-FRET (HTRF Transcreener ADP)
Format: biochemical
Details: 10 μM ATP, 55 μg/ml PI, approximately 3 nM Vps34, 1 hour at ambient temperature; absolute IC50, mean of two independent experiments; read-out: IC50 activity range

T1 sequence (Q8NEB9 whole entry): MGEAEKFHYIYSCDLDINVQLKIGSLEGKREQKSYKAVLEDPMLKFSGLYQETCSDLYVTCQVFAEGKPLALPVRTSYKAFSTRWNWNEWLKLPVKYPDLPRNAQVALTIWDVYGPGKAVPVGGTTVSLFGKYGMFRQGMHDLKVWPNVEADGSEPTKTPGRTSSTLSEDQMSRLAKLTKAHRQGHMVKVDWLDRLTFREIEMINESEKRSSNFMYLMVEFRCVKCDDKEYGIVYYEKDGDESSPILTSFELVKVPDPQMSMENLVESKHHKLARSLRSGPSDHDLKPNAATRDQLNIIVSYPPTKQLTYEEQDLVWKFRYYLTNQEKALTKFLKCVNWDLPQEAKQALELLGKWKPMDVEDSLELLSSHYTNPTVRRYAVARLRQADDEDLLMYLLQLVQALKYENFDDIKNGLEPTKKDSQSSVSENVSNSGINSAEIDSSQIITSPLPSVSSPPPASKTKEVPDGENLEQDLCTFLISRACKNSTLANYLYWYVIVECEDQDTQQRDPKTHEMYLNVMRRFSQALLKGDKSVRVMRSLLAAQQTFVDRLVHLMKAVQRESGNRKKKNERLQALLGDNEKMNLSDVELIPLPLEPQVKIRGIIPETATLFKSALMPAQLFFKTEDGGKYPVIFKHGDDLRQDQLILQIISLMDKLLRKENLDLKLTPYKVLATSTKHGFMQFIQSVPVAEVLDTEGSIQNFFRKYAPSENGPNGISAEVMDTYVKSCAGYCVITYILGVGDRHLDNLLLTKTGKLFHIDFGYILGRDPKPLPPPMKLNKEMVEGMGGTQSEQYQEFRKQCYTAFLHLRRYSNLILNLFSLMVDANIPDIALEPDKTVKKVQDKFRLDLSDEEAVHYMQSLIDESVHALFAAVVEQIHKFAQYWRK

SMILES	IC50 [nM]
C[C@@H]1COCCN1c1cc(=O)n2c(n1)N(Cc1cocn1)[C@](C)(C(F)(F)F)C2 [Example 183, (S)-2-Methyl-7-((R)-3-methylmorpholin-4-yl)-1-oxazol-4-ylmethyl-2-trifluoromethyl-2,3-dihydro-1H-imidazo[1,2-a]-pyrimidin-5-one]	< 10
CC(C)Oc1ncccc1CN1c2nc(N3CCOC[C@H]3C)cc(=O)n2CC[C@H]1C(F)(F)F [Example 230, (S)-9-(2-Isopropoxy-pyridin-3-ylmethyl)-2-((R)-3-methyl-morpholin-4-yl)-8-trifluoromethyl-6,7,8,9-tetrahydro-pyrimido[1,2-a]-pyrimidin-4-one]	< 10
C[C@@H]1COCCN1c1nc2n(c(=O)c1F)CC[C@@H](C(F)(F)F)N2c1ccc(C2CC2)nc1 [Example 43, (S)-9-(6-Cyclopropyl-pyridin-3-yl)-3-fluoro-2-((R)-3-methyl-morpholin-4-yl)-8-trifluoromethyl-6,7,8,9-tetrahydro-pyrimido[1,2-a]-pyrimidin-4-one]	< 10
CC1CN(c2cc(=O)n3c(n2)N(Cc2ccccc2)[C@H](C(F)(F)F)CC3)CCO1 (single isomer, unassigned) [Example 191]	10 to 100
O=C(CN1c2nc(N3CC4CCC(C3)O4)c(F)c(=O)n2CC[C@H]1C(F)(F)F)C1CC1 [Example 273, (S)-9-(2-Cyclopropyl-2-oxoethyl)-3-fluoro-2-(8-oxa-3-aza-bicyclo[3.2.1]oct-3-yl)-8-trifluoromethyl-6,7,8,9-tetrahydro-pyrimido[1,2-a]-pyrimidin-4-one]	10 to 100
C[C@@H]1COCCN1c1nc2n(c(=O)c1F)CCC(C)(C)N2CC(=O)c1ccccn1 [Example 71, 3-Fluoro-8,8-dimethyl-2-((R)-3-methyl-morpholin-4-yl)-9-(2-oxo-2-pyridin-2-yl-ethyl)-6,7,8,9-tetrahydro-pyrimido[1,2-a]-pyrimidin-4-one]	< 10
C[C@@H]1COCCN1c1nc2n(c(=O)c1F)[C@@H](C(F)(F)F)CCN2c1ccc(OC(F)F)nc1 [Example 127, (R)-9-(6-Difluoromethoxy-pyridin-3-yl)-3-fluoro-2-((R)-3-methyl-morpholin-4-yl)-6-trifluoromethyl-6,7,8,9-tetrahydro-pyrimido[1,2-a]-pyrimidin-4-one]	< 10
Cc1nc(CN2c3nc(N4CC5CCC(C4)O5)c(F)c(=O)n3CC[C@H]2C(F)(F)F)no1 [Example 275, (S)-3-Fluoro-9-(5-methyl-[1,2,4]oxadiazol-3-yl-methyl)-2-(8-oxa-3-azabicyclo[3.2.1]oct-3-yl)-8-trifluoromethyl-6,7,8,9-tetrahydro-pyrimido[1,2-a]-pyrimidin-4-one]	10 to 100
C[C@@H]1COCCN1c1cc(=O)n2c(n1)N(CC(=O)N1CCOCC1)[C@H](C(F)(F)F)CC2 [Example 234, (S)-2-((R)-3-Methyl-morpholin-4-yl)-9-(2-morpholin-4-yl-2-oxo-ethyl)-8-trifluoromethyl-6,7,8,9-tetrahydro-pyrimido[1,2-a]-pyrimidin-4-one]	10 to 100
O=c1cc(N2CCOCC2CO)nc2n1CC[C@@H](C(F)(F)F)N2c1cc(F)cc(F)c1 (single isomer, unassigned) [Example 176]	> 100
Cc1nocc1CN1CC[C@H](C(F)(F)F)n2c1nc(N1CCOC[C@H]1C)cc2=O [Example 143, (R)-9-(3-Methyl-isoxazol-4-ylmethyl)-2-((R)-3-methyl-morpholin-4-yl)-6-trifluoromethyl-6,7,8,9-tetrahydro-pyrimido[1,2-a]-pyrimidin-4-one]	< 10
CCC1CN(c2cc(=O)n3c(n2)N(CC(=O)c2ccccn2)[C@H](C(F)(F)F)CC3)CCO1 (single isomer, unassigned) [Example 172]	> 100
CC(C)c1noc(CN2c3nc(N4CCOC[C@H]4C)c(F)c(=O)n3CC[C@H]2C(F)(F)F)n1 [Example 248, (S)-3-Fluoro-9-(3-isopropyl-[1,2,4]oxadiazol-5-yl-methyl)-2-((R)-3-methylmorpholin-4-yl)-8-trifluoromethyl-6,7,8,9-tetrahydro-pyrimido[1,2-a]-pyrimidin-4-one]	< 10
